Reference: article PMC2759517 (PLoS ONE, 2009)
Where no end group is shown, it is not given here.

Target: T1, HA-tagged PA of FluB (Influenza B virus, UniProt Q9QLI9)
T1 construct: upstream of the initiation codon and antisense primers with a deleted stop codon; made in house; host or cells: human 293T cells, transiently transfected; unpurified cell lysate
Assay: biochemical
Type: binding

T1 sequence (Q9QLI9 whole entry): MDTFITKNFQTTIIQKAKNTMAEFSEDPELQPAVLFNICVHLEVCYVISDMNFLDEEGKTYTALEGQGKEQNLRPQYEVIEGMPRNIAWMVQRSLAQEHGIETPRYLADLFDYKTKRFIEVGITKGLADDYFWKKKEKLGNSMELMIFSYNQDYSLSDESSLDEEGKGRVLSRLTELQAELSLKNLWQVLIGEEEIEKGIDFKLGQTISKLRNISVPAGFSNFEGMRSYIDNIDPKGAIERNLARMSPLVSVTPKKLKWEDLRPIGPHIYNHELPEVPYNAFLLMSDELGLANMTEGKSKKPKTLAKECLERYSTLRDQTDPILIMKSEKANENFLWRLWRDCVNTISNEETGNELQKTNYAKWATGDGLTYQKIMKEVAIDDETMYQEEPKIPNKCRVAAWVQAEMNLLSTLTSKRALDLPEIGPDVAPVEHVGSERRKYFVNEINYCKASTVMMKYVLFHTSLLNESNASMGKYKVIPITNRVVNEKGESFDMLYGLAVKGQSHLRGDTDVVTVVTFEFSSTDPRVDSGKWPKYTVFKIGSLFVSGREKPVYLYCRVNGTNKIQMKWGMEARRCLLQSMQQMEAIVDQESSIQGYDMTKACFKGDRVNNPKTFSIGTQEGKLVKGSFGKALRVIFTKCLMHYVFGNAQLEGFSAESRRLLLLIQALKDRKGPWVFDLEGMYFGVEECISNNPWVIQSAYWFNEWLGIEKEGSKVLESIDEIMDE

MDVNPYFLFLKVPAQ-NH2 [PB11-15 AT6Y,L7F] was tested, and the IC50 was 345 nM.
MDVNPCLLFLKVPAQ-NH2 [PB11-15 AT6C] showed an IC50 of over 3000 nM.
Work on CC[C@H](C)[C@H](NC(=O)[C@H](CC(N)=O)NC(=O)[C@@H](N)CCSC)C(=O)N[C@@H](CC(N)=O)C(=O)N1CCC[C@H]1C(=O)N[C@H](C(=O)N[C@@H](CC(C)C)C(=O)N[C@@H](CC(C)C)C(=O)N[C@@H](Cc1ccccc1)C(=O)N[C@@H](CC(C)C)C(=O)N[C@@H](CCCCN)C(=O)N[C@H](C(=O)N1CCC[C@H]1C(=O)N[C@@H](C)C(=O)N[C@@H](CCC(N)=O)C(N)=O)C(C)C)[C@@H](C)O [PB11-15 AD2N,V3I] yielded an IC50 of over 3000 nM.
In the case of MDVNPFLLFLKVPAQ-NH2 [PB11-15 AT6F], the IC50 is reported as 750 nM.
MDVNPTFLFLKVPAQ-NH2 [PB11-15 AL7F] gave an IC50 of over 3000 nM.
MDVNPHLLFLKVPAQ-NH2 [PB11-15 AT6H] showed an IC50 of over 3000 nM.
MDVNPYLLFLKVPAQ-NH2 [PB11-15 AT6Y] gave an IC50 of 107 nM.
“MDVNPTLLFIDVPAQ-NH2 [PB11-15 AL10I,K11D]” gave an IC50 of over 3000 nM.
Compound “MNINPTLLFLKVPIQ-NH2 [PB11-15 AD2N,V3I,L14I]” has an IC50 of over 3000 nM.
Work on MDVNPWLLFLKVPAQ-NH2 [PB11-15 AT6W] yielded an IC50 of 628 nM.
